From patent US20230021946A1, “MONOMERIC FUSION PEPTIDES AND METHOD OF USE THEREOF” (priority 2021, published 2023)
Read-outs that look alike come from different tables or passages of the source. [ ]: non-standard residue; d: D form. Nva = CCC[C@H](N)C(=O)O

Experiments:
[1] = Stability in human plasma at 37° C.; assay type: in vitro ADME; conditions: for % of Time 0 / remaining at 1 h, 1000 ng/ml / remaining at 8 h, 1000 ng/ml / remaining at 22 h, 1000 ng/ml: 1000 ng/ml; for % of Time 0: 0.00 hrs, N=3; for remaining at 1 h, 1000 ng/ml / remaining at 8 h, 1000 ng/ml / remaining at 22 h, 1000 ng/ml: N=3, read-out: % of Time 0; for resistance to proteolytic degradation compared with GLP1 peptide: 8 and 22 hours of incubation
Procedure: The stability and resistance to proteolytic degradation of a number of ALY688-GLP1v fusion peptides were assessed following incubation in human plasma at 37° C.
HPLC (Supelco Discovery BIO Wide Pore C5-3 (2.1×50 mm) with a slow gradient to separate possible degradation products) was used to quantify each peptide. High resolution mass spectrometry (Thermo Q Exactive) Plus was used to collect full scan and MS2 spectra to characterize any possible degradants. The data were evaluated both manually and using Proteome Discoverer data mining software.
In the above tables, Temperature=37° C., Concentration=1000 ng/ml, and N=3/time point.

[2] = Oral glucose tolerance test after single intravenous injection in mice; assay type: in vivo; conditions: mice fasted 4 hours, intravenous injection 10 minutes before oral glucose load 1 g/kg
Procedure: The oral glucose load was 1 g glucose/kg body weight. Blood glucose levels were measured with a glucometer at time −30 minutes, 0 (right before the oral glucose load), 15, 30, 60 and 90 minutes after the oral glucose load. Mice were euthanized after the time 90 minutes.

[3] = Pharmacokinetic profile in mice after single subcutaneous injection; assay type: in vivo; conditions: 10 mg/kg; for AUC(0-t) / Cmax / Tmax: mouse, sc, plasma
Procedure: GLP1v peptide (with Gly8 substitution) and GLP1v fusion peptides were administered once by subcutaneous injection (concentration=10 mg/kg). Blood was collected into K2EDTA tubes containing a cocktails of protease inhibitors (DPP-4 and Aprotinin). The Bioanalytical Method BAM.0634.01 was used for the quantitation of GLP1v and GLP1v fusion peptides in K2EDTA mouse plasma. It is based on protein precipitation extraction followed by LC-MS/MS instrumental analysis and covers a measurement range from 1.00 to 1000 ng/mL. Samples were analyzed on a Waters Acquity liquid chromatograph interfaced with a Thermo Scientific TSQ Vantage triple quadrupole mass spectrometer with ESI ionization.

[4] = system: P38MAPK (T180/Y182) phosphorylation; conditions: L6 murine skeletal muscle cells, ALY688 alone, previously shown; cited from earlier work

Row | Compound | % of Time 0 [1] [%] | remaining at 1 h, 1000 ng/ml [1] [%] | remaining at 8 h, 1000 ng/ml [1] [%] | remaining at 22 h, 1000 ng/ml [1] [%] | resistance to proteolytic degradation compared with GLP1 peptide [1] | blood glucose levels after glucose load [2] | change in AUC / total exposure compared with GLP1v peptide [3] | AUC(0-t) [3] [ng·h/mL] | Cmax [3] [ng/mL] | Tmax [3] [min] | change in Tmax compared with GLP1v peptide [3] | remaining at 1 h, 1000 ng/ml ([1]; human plasma (K2EDTA)) [%] | remaining at 8 h, 1000 ng/ml ([1]; human plasma (K2EDTA)) [%] | remaining at 22 h, 1000 ng/ml ([1]; human plasma (K2EDTA)) [%] | P38MAPK (T180/Y182) phosphorylation [4]
1 | CCC[C@H](NC(=O)[C@@H]1CCCN1C(=O)[C@@H](NC(=O)[C@H](N)CC(N)=O)[C@@H](C)CC)C(=O)N[C@@H](CC(C)C)C(=O)N[C@@H](Cc1ccc(O)cc1)C(=O)N[C@H](CO)C(=O)N[C@@H](Cc1ccccc1)C(=O)N[C@@H](C)C(=O)N[C@H](CO)C(=O)NCC(=O)NCC(=O)NCC(=O)NCCCC[C@H](NC(=O)[C@H](C)NC(=O)[C@H](C)NC(=O)[C@H](CCC(N)=O)NC(=O)CNC(=O)[C@H](CCC(=O)O)NC(=O)[C@H](CC(C)C)NC(=O)[C@H](Cc1ccc(O)cc1)NC(=O)[C@H](CO)NC(=O)[C@H](CO)NC(=O)[C@@H](NC(=O)[C@H](CC(=O)O)NC(=O)[C@H](CO)NC(=O)[C@@H](NC(=O)[C@H](Cc1ccccc1)NC(=O)[C@@H](NC(=O)CNC(=O)[C@H](CCC(=O)O)NC(=O)CNC(=O)[C@@H](N)Cc1c[nH]cn1)[C@@H](C)O)[C@@H](C)O)C(C)C)C(=O)N[C@@H](CCC(=O)O)C(=O)N[C@@H](Cc1ccccc1)C(=O)N[C@H](C(=O)N[C@@H](C)C(=O)N[C@@H](Cc1c[nH]c2ccccc12)C(=O)N[C@@H](CC(C)C)C(=O)N[C@H](C(=O)N[C@@H](CCCCN)C(=O)NCC(=O)N[C@@H](CCCNC(=N)N)C(N)=O)C(C)C)[C@@H](C)CC [ALY688-GLP1v(Lys26)] | 100 | 99 | 74 | 40 | better resistance to proteolytic degradation | greater glucose lowering action | two-fold increase | 1020 | 1610 | 10 |  |  |  |  | 
2 | CCC[C@H](NC(=O)[C@@H]1CCCN1C(=O)[C@@H](NC(=O)[C@H](N)CC(N)=O)[C@@H](C)CC)C(=O)N[C@@H](CC(C)C)C(=O)N[C@@H](Cc1ccc(O)cc1)C(=O)N[C@H](CO)C(=O)N[C@@H](Cc1ccccc1)C(=O)N[C@@H](C)C(=O)N[C@H](CO)C(=O)NCC(=O)NCC(=O)NCC(=O)NCCCC[C@H](NC(=O)[C@H](C)NC(=O)[C@H](C)NC(=O)[C@H](CCC(N)=O)NC(=O)CNC(=O)[C@H](CCC(=O)O)NC(=O)[C@H](CC(C)C)NC(=O)[C@H](Cc1ccc(O)cc1)NC(=O)[C@H](CO)NC(=O)[C@H](CO)NC(=O)[C@@H](NC(=O)[C@H](CC(=O)O)NC(=O)[C@H](CO)NC(=O)[C@@H](NC(=O)[C@H](Cc1ccccc1)NC(=O)[C@@H](NC(=O)CNC(=O)[C@H](CCC(=O)O)NC(=O)CNC(=O)[C@@H](N)Cc1c[nH]cn1)[C@@H](C)O)[C@@H](C)O)C(C)C)C(=O)N[C@@H](CCC(=O)O)C(=O)N[C@@H](Cc1ccccc1)C(=O)N[C@H](C(=O)N[C@@H](C)C(=O)N[C@@H](Cc1c[nH]c2ccccc12)C(=O)N[C@@H](CC(C)C)C(=O)N[C@H](C(=O)N[C@@H](CCCCNC(=O)CNC(=O)CNC(=O)CNC(=O)[C@@H](CO)NC(=O)[C@H](C)NC(=O)[C@H](Cc1ccccc1)NC(=O)[C@@H](CO)NC(=O)[C@H](Cc1ccc(O)cc1)NC(=O)[C@H](CC(C)C)NC(=O)[C@H](CCC)NC(=O)[C@@H]1CCCN1C(=O)[C@@H](NC(=O)[C@H](N)CC(N)=O)[C@@H](C)CC)C(=O)NCC(=O)N[C@@H](CCCNC(=N)N)C(N)=O)C(C)C)[C@@H](C)CC [ALY688-GLP1v(Lys26,34)] |  |  |  |  |  |  | decrease in total exposure | 358 | 372 | 15 | further increase in the Tmax |  |  |  | 
3 | CCC[C@H](NC(=O)[C@@H]1CCCN1C(=O)[C@@H](NC(=O)[C@H](N)CC(N)=O)[C@@H](C)CC)C(=O)N[C@@H](CC(C)C)C(=O)N[C@@H](Cc1ccc(O)cc1)C(=O)N[C@H](CO)C(=O)N[C@@H](Cc1ccccc1)C(=O)N[C@@H](C)C(=O)N[C@H](CO)C(=O)NCC(=O)NCC(=O)NCC(=O)NCCCC[C@H](NC(=O)[C@@H](NC(=O)[C@H](CC(C)C)NC(=O)[C@H](Cc1c[nH]c2ccccc12)NC(=O)[C@H](C)NC(=O)[C@@H](NC(=O)[C@H](Cc1ccccc1)NC(=O)[C@H](CCC(=O)O)NC(=O)[C@H](CCCCN)NC(=O)[C@H](C)NC(=O)[C@H](C)NC(=O)[C@H](CCC(N)=O)NC(=O)CNC(=O)[C@H](CCC(=O)O)NC(=O)[C@H](CC(C)C)NC(=O)[C@H](Cc1ccc(O)cc1)NC(=O)[C@H](CO)NC(=O)[C@H](CO)NC(=O)[C@@H](NC(=O)[C@H](CC(=O)O)NC(=O)[C@H](CO)NC(=O)[C@@H](NC(=O)[C@H](Cc1ccccc1)NC(=O)[C@@H](NC(=O)CNC(=O)[C@H](CCC(=O)O)NC(=O)CNC(=O)[C@@H](N)Cc1c[nH]cn1)[C@@H](C)O)[C@@H](C)O)C(C)C)[C@@H](C)CC)C(C)C)C(=O)NCC(=O)N[C@@H](CCCNC(=N)N)C(N)=O [ALY688-GLP1v(Lys34)] | 100 | 95 | 74 | 49 | better resistance to proteolytic degradation | greater glucose lowering action | decrease in total exposure | 177 | 267 | 15 | further increase in the Tmax |  |  |  | 
4 | CC[C@H](C)[C@H](NC(=O)[C@H](Cc1ccccc1)NC(=O)[C@H](CCC(=O)O)NC(=O)[C@H](CCCCN)NC(=O)[C@H](C)NC(=O)[C@H](C)NC(=O)[C@H](CCC(N)=O)NC(=O)CNC(=O)[C@H](CCC(=O)O)NC(=O)[C@H](CC(C)C)NC(=O)[C@H](Cc1ccc(O)cc1)NC(=O)[C@H](CO)NC(=O)[C@H](CO)NC(=O)[C@@H](NC(=O)[C@H](CC(=O)O)NC(=O)[C@H](CO)NC(=O)[C@@H](NC(=O)[C@H](Cc1ccccc1)NC(=O)[C@@H](NC(=O)CNC(=O)[C@H](CCC(=O)O)NC(=O)CNC(=O)[C@@H](N)Cc1cnc[nH]1)[C@@H](C)O)[C@@H](C)O)C(C)C)C(=O)N[C@@H](C)C(=O)N[C@@H](Cc1c[nH]c2ccccc12)C(=O)N[C@@H](CC(C)C)C(=O)N[C@H](C(=O)N[C@@H](CCCCN)C(=O)NCC(=O)N[C@@H](CCCNC(=N)N)C(N)=O)C(C)C [GLP1v with Gly8 substitution, reference compound] | 100 |  |  |  |  | expected glucose-lowering activity |  | 525 | 781 | 5 |  | 85 | 41 | 24 | 
5 | H-DAsn-Ile-Pro-Nva-Leu-Tyr-DSer-Phe-Ala-DSer-NH2 (H-[dN]IP[Nva]LY[dS]FA[dS]-NH2; SMILES CCC[C@H](NC(=O)[C@@H]1CCCN1C(=O)[C@@H](NC(=O)[C@H](N)CC(N)=O)[C@@H](C)CC)C(=O)N[C@@H](CC(C)C)C(=O)N[C@@H](Cc1ccc(O)cc1)C(=O)N[C@H](CO)C(=O)N[C@@H](Cc1ccccc1)C(=O)N[C@@H](C)C(=O)N[C@H](CO)C(N)=O) [ALY688, 10 amino acid chemically synthesized adiponectin receptor agonist peptide, reference compound] |  |  |  |  |  | no glucose effect |  |  |  |  |  |  |  |  | increased
